Non-standard residues stand in square brackets, D forms with d. No end group written: not given here.
What was measured:
[1] = tested on: C2C12 cells; experiment: ATP levels in cultured C2C12 cells (CellTiter-Glo); type: cell-based, mouse; conditions: peptide 10 μM, 3 days with readdition every 24 hours, relative to 0.1% DMSO control
Description: The effect of the peptides on cellular metabolism can be assessed using an assay of ATP levels in cultured cells such as mouse myoblast cells. Peptides were initially prepared as 10 mM stock in DMSO, diluted to 1 mM in H2O, and used at a final concentration of 10 μM (0.1% DMSO). […] Lovastatin was prepared as 10 mM stock in 70% Ethanol and used at final concentration of 10 μM containing 0.1% DMSO. CellTiter-Glo® Assay kit was purchased from Promega (Madison, Wis.). […] C2C12 cells were grown in DMEM medium supplemented with 20% FBS with 100 IU/ml penicillin and 100 μg/ml streptomycin. […] C2C12 cells were seeded at 800 cells per well on 96-well plates. […] ATP levels were determined using a CellTiter-Glo Assay kit according to the manufacturer's instructions. Luminescence for each sample well on the plate was measured using a Cytation 3 plate reader (BioTek, Winooski, Vt.). Activity was calculated relative to 0.1% DMSO treated control. The relative standard deviation of the result for the 0.1% DMSO treated control was <5%. […] ATP levels for treatment with lovastatin (10 μM) were <50% of the 0.1% DMSO treated control value.

[2] = tested on: 3T3-L1 mouse adipocytes; experiment: Free fatty acid levels in cultured 3T3-L1 mouse adipocytes and insulin dependence (Example 17); type: cell-based; conditions: isoproterenol 0.1 nM; for Free Fatty Acid Levels, Percent of Isoproterenol Control Activity No Insulin: peptide 10 μM alone, relative to isoproterenol treated cells; for Free Fatty Acid Levels, Percent of Isoproterenol Control Activity With Insulin: peptide 10 μM with 0.25 nM insulin, relative to 0.25 nM insulin treated cells
[3] = tested on: C2C12 cells; experiment: Glucose utilization in cultured C2C12 cells and insulin dependence; type: cell-based, mouse; conditions: 22 h; for Glucose Utilization, Percent of Control Activity No Insulin: peptide 10 μM alone, glucose in medium relative to untreated cells; for Glucose Utilization, Percent of Control Activity With Insulin: peptide 10 μM with 5-20 nM insulin, glucose in medium relative to insulin treated cells
From the text: The effect of the peptides on glucose homeostasis can be assessed using an assay to monitor glucose utilization by cultured cells such as mouse myotubes. […] C2C12 mouse muscle cell line was purchased from Millipore Sigma (Saint Louis, Mo.). […] Three days after plating the medium was removed and with Differentiation Medium (DMEM/low glucose (1 g/L)+2% Horse Serum+antibiotics) added. […] After 5 days of differentiation, the medium was removed from myotube cultures and replaced with Assay Medium (DMEM/low glucose (1 g/L)+antibiotics). […] Following the 5 h incubation the medium was removed and fresh Assay Medium containing compounds added; 10 μM peptide in absence or presence of 5-20 nM insulin, or 1 mM metformin as a potent stimulator of glucose utilization. […] Following 22 h incubation, conditioned medium from each well was transferred to a fresh 96-well plate. Glucose concentrations in the medium were determined using a Glucose Assay kit (Abcam; Cambridge, Mass.) according to the manufacturer's instructions; absorbance measured using a Cytation 3 plate reader at 570 nm (BioTek, Winooski, Vt.). Absorbance values were expressed as percent control activity relative to untreated treated cells (no insulin) for 10 μM peptide alone or 5-20 nM insulin treated cells (with insulin) for 10 μM peptide in presence of 5-20 nM insulin. Untreated cells were used as reference for basal glucose utilization. The relative standard deviation from plate to plate of untreated control was <10%. Metformin at 1 mM was used as a potent control for increasing glucose utilization. Glucose levels for metformin (1 mM) treatment were <10% of the untreated control value. Data are presented as averages values from 2-3 independent experiments with each data point performed in triplicate.

[4] = tested on: C2C12 cells; experiment: Caspase 3/7 activity in C2C12 cells; type: cell-based, mouse; conditions: peptide 10 μM, 24 hours, relative to 0.1% DMSO control
Description: The effect of the peptides on cell death/survival can be assessed using a caspase-3/7 assay in cultured cells such as mouse myoblast cells. Peptides were initially prepared as 10 mM stock in DMSO, diluted to 1 mM in H2O, and used at a final concentration of 10 μM (0.1% DMSO). […] Staurosporine (Abcam, Cambridge, Mass.) was dissolved at 10 mM in DMSO as a stock solution. Caspase-Glo 3/7 Assay Reagent was purchased from Promega (Madison, Wis.). C2C12 cell line was purchased from American Type Culture Collection (Manassas, Va.). C2C12 cells were grown in DMEM supplemented with 20% FBS with 100 IU/ml penicillin and 100 μg/ml streptomycin. […] C2C12 cells were seeded at 4,000 cells per well on 96-well plates. […] Caspase 3/7 activity was determined using a Caspase-Glo 3/7 Assay kit according to the manufacturer's instructions. Luminescence for each sample well on the plate was measured using a Cytation 3 plate reader (BioTek, Winooski, Vt.). Activity was calculated relative to 0.1% DMSO control.

[5] = tested on: C2C12 cells; experiment: Cell proliferation in C2C12 cells (Cyquant DNA dye binding); type: cell-based, mouse; conditions: peptide 10 μM, 72 hours with readdition every 24 hours, relative to 0.1% DMSO control
Description: The effect of the peptides on cell proliferation was assessed using a DNA dye binding assay in cultured cells such as mouse myoblast cells. Peptides were initially prepared as 10 mM stock in DMSO, diluted to 1 mM in H2O, and added at a final concentration of 10 μM (0.1% DMSO). Lovastatin was used as a growth arrest control at final concentration of 10 μM. […] C2C12 cells were grown in DMEM supplemented with 20% FBS with 100 IU/ml penicillin and 100 μg/ml streptomycin. […] C2C12 cells were seeded at 800 cells per well on 96-well plates. […] Cell proliferation was determined using Cyquant Direct Nucleic Acid Stain (Thermo Fisher Scientific, Waltham, Mass.) according to the manufacturer's instructions. Fluorescence for each sample well on the plate was measured using a Cytation 3 plate reader at Ex/Em=495/535 nm (BioTek, Winooski, Vt.). Activity was calculated relative to 0.1% DMSO untreated control. The relative standard deviation for the lovastatin control was <27%. The cell proliferation for the lovastatin control was <25% of the value for untreated control.

Row | Compound | ATP Levels, Percent of Control Activity [1] [%] | Free Fatty Acid Levels, Percent of Isoproterenol Control Activity No Insulin [2] [%] | Free Fatty Acid Levels, Percent of Isoproterenol Control Activity With Insulin [2] [%] | Glucose Utilization, Percent of Control Activity No Insulin [3] [%] | Glucose Utilization, Percent of Control Activity With Insulin [3] [%] | Caspase 3/7 Activity, Percent of Control Activity [4] [%] | Cell Proliferation, Percent of Control [5] [%]
1 | 16 (RRMMGMVFQCLSG[dA]) [compound 16] | 94.7 | 110 | 63.0 | 99.7 | 88.4 | 93.1 | 89.6
2 | 17 (RRMMGMVFQSLSG[dA]) [compound 17] | 100.0 | 98.4 | 87.7 | 102.6 | 96.2 | 92.0 | 89.1
3 | 18 (RRXXGXVFQCLCGA; (3)..(3) Xaa is Norleucine; (4)..(4) Xaa is Norleucine; (6)..(6) Xaa is Norleucine; (14)..(14) D-Ala) [compound 18] | 95.5 | 110 | 81.1 | 103.6 | 122.1 | 93.8 | 74.9
4 | 19 (RRMVFQCLCG[dA]; cysteine pairing not given here) [compound 19] | 93.6 | 105 | 79.0 | 100.1 | 76.5 | 100.1 | 92.3
5 | CSCC[C@H](NC(=O)CNC(=O)[C@H](CCSC)NC(=O)[C@H](CCSC)NC(=O)[C@H](CCCNC(=N)N)NC(=O)[C@H](CCCNC(=N)N)NC(=O)[C@@H](N)CCSC)C(=O)N[C@H](C(=O)N[C@@H](Cc1ccccc1)C(=O)N[C@@H](CCC(N)=O)C(=O)N[C@@H](CS)C(=O)N[C@@H](CC(C)C)C(=O)N[C@@H](CS)C(=O)NCC(=O)N[C@@H](CC(C)C)C(=O)O)C(C)C [compound 7] | 106.6 | 102 | 71.3 | 98.1 | 100.7 | 109.4 | 94.0
6 | CSCC[C@H](NC(=O)CNC(=O)[C@H](CCSC)NC(=O)[C@H](CCSC)NC(=O)[C@H](CCCNC(=N)N)NC(=O)[C@@H](N)CCCNC(=N)N)C(=O)N[C@H](C(=O)N[C@@H](Cc1ccccc1)C(=O)N[C@@H](CCC(N)=O)C(=O)N[C@@H](CO)C(=O)N[C@@H](CC(C)C)C(=O)N[C@@H](CS)C(=O)NCC(=O)N[C@H](C)C(=O)O)C(C)C [compound 15] | 100.4 | 109 | 89.0 | 103 | 106.9 | 101.6 | 93.5
